Patent publication US20070141637A1, “Marker for fenestrae” (priority 2004, published 2007)

Assays:
[1] = tested on: Py4.1 cells; assay: Subtractive 2D-gel analysis of plasma membranes, latrunculin-induced versus control cells; type: cell-based, mouse; conditions: Py4.1 plasma membranes, Progenesis Software
Protocol: In one embodiment the method of identifying components of fenestrae comprises the step of Subtractive 2D-gel electrophoresis analysis. Sufficient material was pooled to generate one batch of triplicate gels for vehicle-induced and un-induced Py4.1 cells, and three sets of triplicate gels for untreated, vehicle-induced, and induced bEND5 cells (FIG. 6 and FIG. 13). All gels per cell type were analyzed collectively using ProGenesis® software (Prolific, Inc. Newark, Calif.) to obtain fold differences between the staining intensities of spots in the induced and the uninduced samples and p-values for those differences using the Students t-test (FIG. 7). In the first round of analysis, spots that qualified for one or more of the following criteria were selected: a) fold increase in staining intensity greater than 2 in the induced sample, b) p-value less than 0.05 for any fold increase, c) spot being unique in induced sample. A summary of all the spots selected for mass spectrometry, with their accompanying fold differences and p-values is shown in FIG. 15.
Methods for inducing fenestrae formation in endothelial cells are described in U.S. Provisional Patent No. 60/627,981, which is hereby incorporated by reference in its entirety. Coverslips and dishes were coated with 1% gelatin (Sigma) solution in PBS for 30 minutes at room temperature. […]

[2] = tested on: bEND5 and Py4.1 cells; assay: Western blotting of candidate proteins in plasma membranes of latrunculin-induced versus control cells; type: cell-based, mouse; conditions: LPM versus CPM, equal amounts of protein
Protocol: To confirm the findings of the subtractive proteomic analysis, immunoblotting on the relevant fractions was performed with antibodies to candidate proteins. By comparing equal amounts of protein in the two conditions, change in the protein levels of cofilin, alpha-enolase, radixin, moesin, annexin II, and hnRNP K was evaluated (FIG. 9A, 9B).
Methods for inducing fenestrae formation in endothelial cells are described in U.S. Provisional Patent No. 60/627,981, which is hereby incorporated by reference in its entirety. Coverslips and dishes were coated with 1% gelatin (Sigma) solution in PBS for 30 minutes at room temperature. Endothelial cells were seeded overnight at a density equivalent to 1.5×10^6 cells per 100 mm dish. Cultures were induced with Cytochalasin B (Sigma) at 10 μM for 2 hours, with Latrunculin A (Molecular Probes) at 2.5 μM for 3 hours, or with a combination of recombinant mouse 75 ng/ml VEGF (R&D systems) for 6-72 hours and 10 μM Cytochalasin B for 2 hours. Cells were processed for biochemistry or morphology immediately after the end of the induction.
All steps in the procedure were performed on ice or in centrifuges pre-cooled to 4° C. Cells grown on 150 mm dishes were washed twice with PBS containing calcium and magnesium (Invitrogen), and once with coating buffer (20 mM MES, 135 mM NaCl, 0.5 mM CaCl2, 1 mM MgCl2, pH 5.5). […]

## C/C1=C/C(=O)O[C@@H]2C[C@@H](CC[C@H](C)/C=C\C=C\CC1)O[C@@](O)([C@@H]1CSC(=O)N1)C2 [latrunculin, Latrunculin A]
[1]
  spot 659 intensity, latrunculin-induced versus control samples: 1.772 fold
[1]; part of a train of spots (phosphorylation states)
  spot 401 intensity, latrunculin-induced versus control samples: 3.8 fold
[2]
  enrichment of phosphorylated moesin, hnRNP K, cofilin and alpha-enolase in plasma membranes: Enrichment in induced cells is confirmed
